Results reported in US20190015379A1, “USE OF DIANHYDROGALACTITOL AND ANALOGS AND DERIVATIVES THEREOF, TOGETHER WITH RADIATION, TO TREAT NON-SMALL-CELL CARCINOMA OF THE LUNG AND GLIOBLASTOMA MULTIFORME AND SUPPRESS PROLIFERATION OF CANCER STEM CELLS” (DelMar Pharmaceuticals, Inc., priority 2014, published 2019).

Legend:
[1] = system: A549 human lung adenocarcinoma xenograft tumors; assay: A549 NSCLC xenograft tumor growth in Rag2 mice; format: in vivo, female Rag2 mice
Protocol: The purpose of the study reported in this Example is to evaluate the activity of dianhydrogalactitol in in vivo models of drug-resistant NSCLC in comparison to other drugs, including cisplatin. Rag2 mice bearing subcutaneous human lung adenocarcinoma xenograft tumors of either TKI-resistant (H1975) or TKI-sensitive (A549) origin were treated.
Two human NSCLC cell lines, A549 (TKI-sensitive) and H1975 (TKI-resistant), were used as xenograft tumor models in female Rag2 mice. The mice were 6 to 8 weeks of age and weighed 18-23 grams. 10 mice were used per group.
Cisplatin was used in normal saline at a dose of 5 mg/kg. Administration was intravenous.
Dianhydrogalactitol was used in 0.9% sodium chloride for injection at 1.5 mg/kg to 6 mg/kg. Administration was intraperitoneal.
Treatment was initiated at a tumor volume of 100 mm^3 to 150 mm^3.
On day 0, tumor cells were implanted subcutaneously into mice in a volume of 50 μL in Matrigel™ using a 28-gauge needle; injection of the tumor cells was in the back of the mice. Mice were randomly assigned to groups based on tumor volume.
(§1) Tumor growth was monitored by measuring tumor dimensions with calipers beginning on the first day of treatment. Tumor length and width measurements were obtained each Monday, Wednesday, and Friday. Tumor volumes were calculated according to the equation L×W^2/2 with the length (in mm) being defined as the longer axis of the tumor. Animals were weighed at the time of tumor measurement. Tumors were allowed to grow to a maximum of 800 mm^3 before termination.

[2] = Tolerability in A549 tumor-bearing Rag2 mice (body weight, CBC, clinical observations)
Protocol: as §1
All animals had blood collected by cardiac puncture at termination for CBC (complete blood count) with differentiation.
In particular, signs of ill-health were based on body weight loss, change in appetite, and behavioral signs such as altered gait, lethargy, and gross manifestations of stress. If signs of severe toxicity or tumor-related illness were seen, the animals were terminated by isoflurane overdose followed by CO2 asphyxiation, and a necropsy was performed to assess other signs of toxicity. The following organs were examined: liver, gall bladder, spleen, lung, kidney, heart, intestine, lymph nodes, and bladder. Any unusual findings were noted.

[3] = dianhydrogalactitol 1.5 mg/kg i.p. (group 3)
[4] = dianhydrogalactitol 3 mg/kg i.p. (group 4)

**Q.** With dianhydrogalactitol as the substance, how does the “day on which a mean tumor volume of 200 mm^3 was observed” value (“day … of 200 mm^3 was observed” for short) [1, 3] read?
**A.** Its value is 45 days.

**Q.** What about the “day on which a mean tumor volume of 400 mm^3 was reached” value [1, 3] of the same substance?
**A.** Its value is 67 days.

**Q.** What about the tumor doubling time [1, 3] of the same substance?
**A.** The tumor doubling time was 22.

**Q.** And the “number of animals remaining on study on day 70” value (“number of animals remaining” for short) ([1]; dianhydrogalactitol 1.5 mg/kg i.p. M, W, F for 3 weeks (group 3))?
**A.** The value was 7/10.

**Q.** And the “tumor growth delay compared to untreated controls” value ([1]; dianhydrogalactitol 3 mg/kg i.p.)?
**A.** Its value is 26 days.

**Q.** And the “day … of 200 mm^3 was observed” value [1, 4]?
**A.** Its value is 42 days.

**Q.** What about the “day on which a mean tumor volume of 400 mm^3 was reached” value [1, 4] of the same substance?
**A.** Its value is 81 days.

**Q.** And the tumor doubling time [1, 4]?
**A.** The tumor doubling time was 39.

**Q.** And the “number of animals remaining” value ([1]; dianhydrogalactitol 3 mg/kg i.p. M, W, F for 3 weeks (group 4))?
**A.** Its value is 6/10.

**Q.** And the “day … of 200 mm^3 was observed” value ([1]; dianhydrogalactitol 6 mg/kg i.p. (group 5))?
**A.** Its value is 54 days.

**Q.** What about the “number of animals remaining” value ([1]; dianhydrogalactitol 6 mg/kg i.p. (group 5; stopped after 3 doses)) of the same substance?
**A.** The value was 8/10.

**Q.** And the body weight loss ([2]; dianhydrogalactitol 6 mg/kg (group 5))?
**A.** Its body weight loss is “body weight loss was observed”.

**Q.** And the “tolerability of the dosage” value ([2]; dianhydrogalactitol 6 mg/kg, only 3 of 9 scheduled doses administered)?
**A.** The value was “significant weight loss and morbidity”.

**Q.** And the “hemoglobin (g/L), CBC at termination, versus untreated control” value ([2]; groups 4 or 5 (dianhydrogalactitol 3 or 6 mg/kg))?
**A.** Its value is “Statistical significance (p<0.05)”.
